In US20230131192A1, “1H-PYRAZOLO[4,3-d]PYRIMIDINE COMPOUNDS AS TOLL-LIKE RECEPTOR 7 (TLR7) AGONISTS” (BRISTOL-MYERS SQUIBB COMPANY, priority 2020, published 2023):

Legend:
CD69 = test: Induction of CD69 in human whole blood; type: cell-based; settings: 17 hrs, CD69 surface staining, 100% set to 1 uM of resiquimod, average where assay was performed multiple times, read-out: hWB CD69 EC50
Experimental: The induction of Type I interferon (IFN) MX-1 genes and the B-cell activation marker CD69 are downstream events that occur upon activation of the TLR7 pathway. The following is a human whole blood assay that measures their induction in response to a TLR7 agonist.
Heparinized human whole blood was harvested from human subjects and treated with test TLR7 agonist compounds at 1 mM. The blood was diluted with RPMI 1640 media and Echo was used to predot 10 nL per well giving a final concentration of 1 uM (10 nL in 10 uL of blood). After mixing on a shaker for 30 sec, the plates were covered and placed in a 37° C. chamber for o/n=17 hrs. Fixing/lysis buffer was prepared (5×→1× in H2O, warm at 37° C.; Cat # BD 558049) and kept the perm buffer (on ice) for later use.
For surface markers staining (CD69): prepared surface Abs: 0.045 ul hCD14-FITC (ThermoFisher Cat # MHCD1401)+0.6 ul hCD19-ef450 (ThermoFisher Cat #48-0198-42)+1.5 ul hCD69-PE (cat # BD555531)+0.855 ul FACS buffer. Added 3 ul/well, spin1000 rpm for 1 min and mixed on shaker for 30 sec, put on ice for 30 mins. Stop stimulation after 30 minutes with 70 uL of prewarmed 1× fix/lysis buffer and use Feliex mate to resuspend (15 times, change tips for each plate) and incubate at 37 C for 10 minutes.
Centrifuge at 2000 rpm for 5 minutes aspirate with HCS plate washer, mix on shaker for 30 sec and then wash with 70 uL in dPBS and pelleted 2×s (2000 rpm for 5 min) and 50 ul wash in FACS buffer pelleted 1×s(2000 rpm for 5 min). Mix on shaker for 30 sec. For Intracellular markers staining (MX-1): Add 50 ul of BD Perm buffer III and mix on shaker for 30 sec. Incubate on ice for 30 minutes (in the dark). Wash with 50 uL of FACS buffer 2× (spin @2300 rpm×5 min after perm) followed by mixing on shaker for 30 sec. Resuspended in 20 ul of FACS buffer containing MX1 antibody ( )(4812)-Alexa 647: Novus Biologicals #NBP2-43704AF647) 20 ul FACS bf+0.8 ul hlgG+0.04 ul MX-1. Spin 1000 rpm for 1 min, mix on shaker for 30se and the samples were incubated at RT in the dark for 45 minutes followed by washing 2×FACS buffer (spin @2300 rpm×5 min after perm). Resuspend 20 ul (35 uL total per well) of FACS buffer and cover with foil and place in 4° C. to read the following day. Plates were read on iQuePlus. The results were loaded into toolset and […] curves are generated in curve master. The y-axis 100% is set to 1 uM of resiquimod.

human TLR7 = target: T1, human TLR7 (Homo sapiens, UniProt Q9NYK1); test: Human TLR7 agonist (reporter) activity assay, HEK-Blue TLR7 cells, SEAP reporter; type: cell-based; settings: 18 h treatment, average where assay was performed multiple times, read-out: hTLR7 Agonism EC50
T1 construct: host or cells: HEK-Blue TLR7 cells (engineered human embryonic kidney cells)
T1 sequence (Q9NYK1 27-1049): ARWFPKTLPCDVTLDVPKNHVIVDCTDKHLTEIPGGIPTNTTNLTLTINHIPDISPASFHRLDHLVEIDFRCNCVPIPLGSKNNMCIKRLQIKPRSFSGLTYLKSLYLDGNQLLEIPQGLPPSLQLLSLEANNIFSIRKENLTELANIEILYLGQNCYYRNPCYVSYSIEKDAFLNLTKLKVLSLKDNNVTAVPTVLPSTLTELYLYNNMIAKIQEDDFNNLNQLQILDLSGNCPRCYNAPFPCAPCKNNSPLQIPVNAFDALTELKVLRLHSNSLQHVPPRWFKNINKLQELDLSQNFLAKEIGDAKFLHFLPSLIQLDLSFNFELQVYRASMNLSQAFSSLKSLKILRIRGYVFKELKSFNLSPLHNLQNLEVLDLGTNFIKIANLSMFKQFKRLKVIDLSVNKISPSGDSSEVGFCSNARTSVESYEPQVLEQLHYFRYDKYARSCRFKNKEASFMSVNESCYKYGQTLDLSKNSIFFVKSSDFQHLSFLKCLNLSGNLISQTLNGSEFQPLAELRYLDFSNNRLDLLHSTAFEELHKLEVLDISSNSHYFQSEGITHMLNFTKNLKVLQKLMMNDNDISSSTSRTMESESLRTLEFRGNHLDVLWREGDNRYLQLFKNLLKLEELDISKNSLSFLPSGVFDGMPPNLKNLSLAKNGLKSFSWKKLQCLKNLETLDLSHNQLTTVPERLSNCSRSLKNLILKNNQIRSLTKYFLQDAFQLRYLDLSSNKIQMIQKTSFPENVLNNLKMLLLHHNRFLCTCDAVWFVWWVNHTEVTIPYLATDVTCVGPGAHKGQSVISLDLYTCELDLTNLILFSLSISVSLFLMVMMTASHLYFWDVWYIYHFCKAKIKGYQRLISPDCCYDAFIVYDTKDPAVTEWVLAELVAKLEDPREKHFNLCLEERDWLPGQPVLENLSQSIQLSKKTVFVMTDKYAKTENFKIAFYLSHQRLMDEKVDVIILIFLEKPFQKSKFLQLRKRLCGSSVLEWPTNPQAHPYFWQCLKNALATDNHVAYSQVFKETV
Experimental: This procedure describes a method for assaying human TLR7 (hTLR7) agonist activity of the compounds disclosed in this specification.
HEK-Blue™ TLR7 cells were added to each well of a 384-well tissue-culture plate (15,000 cells per well) and incubated 16-18 h at 37° C., 5% CO2. Compounds (100 nl) were dispensed into wells containing the HEK-Blue™ TLR cells and the treated cells were incubated at 37° C., 5% CO2. After 18 h treatment ten microliters of freshly-prepared Quanti-Blue™ reagent (Invivogen) was added to each well, incubated for 30 min (37° C., 5% CO2) and SEAP levels measured using an Envision plate reader (OD=620 nm). The half maximal effective concentration values (EC50; compound concentration which induced a response halfway between the assay baseline and maximum) were calculated.

| SMILES | EC50 (CD69) [nM] | EC50 (human TLR7) [nM] |
| --- | --- | --- |
| COc1cc(CN2CCN(S(C)(=O)=O)CC2)ccc1Cn1ncc2nc(N)nc(NCc3noc(C)n3)c21 [Compound 120, 1-({4-[(4-methanesulfonylpiperazin-1-yl)methyl]-2-methoxyphenyl}methyl)-N7-[(5-methyl-1,2,4-oxadiazol-3-yl)methyl]-1H-pyrazolo[4,3-d]pyrimidine-5,7-diamine] | 299 | 345 |
| COc1cc(CN2CC(OC)C2)ccc1Cn1ncc2nc(N)nc(NCc3noc(C)n3)c21 [Compound 118, 1-({2-methoxy-4-[(3-methoxyazetidin-1-yl)methyl]phenyl}methyl)-N7-[(5-methyl-1,2,4-oxadiazol-3-yl)methyl]-1H-pyrazolo[4,3-d]pyrimidine-5,7-diamine] | 4.3 | 47.9 |
| COc1cc(CN2CCN(C)CC2)ccc1Cn1ncc2nc(N)nc(NCc3noc(C4CC4)n3)c21 [Compound 129, N7-[(5-cyclopropyl-1,2,4-oxadiazol-3-yl)methyl]-1-({2-methoxy-4-[(4-methylpiperazin-1-yl)methyl]phenyl}methyl)-1H-pyrazolo[4,3-d]pyrimidine-5,7-diamine] | 5.3 | 47.8 |
| COc1cc(CN2CCN(S(C)(=O)=O)CC2)ccc1Cn1ncc2nc(N)nc(NCc3cc(C)on3)c21 [Compound 110, 1-({4-[(4-methanesulfonylpiperazin-1-yl)methyl]-2-methoxyphenyl}methyl)-N7-[(5-methyl-1,2-oxazol-3-yl)methyl]-1H-pyrazolo[4,3-d]pyrimidine-5,7-diamine] | 438 | 485 |
| COc1cc(CN2CCS(=O)(=O)CC2)ccc1Cn1ncc2nc(N)nc(NCc3noc(C)n3)c21 [Compound 121, 4-({4-[(5-amino-7-{[(5-methyl-1,2,4-oxadiazol-3-yl)methyl]amino}-1H-pyrazolo[4,3-d]pyrimidin-1-yl)methyl]-3-methoxyphenyl}methyl)-1λ^6-thiomorpholine-1,1-dione] | 289 | 656 |
| COc1cc(CNC2CN(S(C)(=O)=O)C2)ccc1Cn1ncc2nc(N)nc(NCc3noc(C)n3)c21 [Compound 122, 1-[(4-{[(1-methanesulfonylazetidin-3-yl)amino]methyl}-2-methoxyphenyl)methyl]-N7-[(5-methyl-1,2,4-oxadiazol-3-yl)methyl]-1H-pyrazolo[4,3-d]pyrimidine-5,7-diamine] | 221 | 570 |
| COc1cc(CNC2CCOCC2)ccc1Cn1ncc2nc(N)nc(NCC[C@@H](O)C3CC3)c21 [Compound 109b, (1R)-3-({5-amino-1-[(2-methoxy-4-{[(oxan-4-yl)amino]methyl}phenyl)methyl]-1H-pyrazolo[4,3-d]pyrimidin-7-yl}amino)-1-cyclopropylpropan-1-ol] | 163 | 1330 |
| COc1cc(CN2CCC(S(C)(=O)=O)CC2)ccc1Cn1ncc2nc(N)nc(NCc3noc(C)n3)c21 [Compound 119, 1-({4-[(4-methanesulfonylpiperidin-1-yl)methyl]-2-methoxyphenyl}methyl)-N7-[(5-methyl-1,2,4-oxadiazol-3-yl)methyl]-1H-pyrazolo[4,3-d]pyrimidine-5,7-diamine] | 34.7 | 298 |
| COc1cc(CN2CCN(CCO)CC2)ccc1Cn1ncc2nc(N)nc(NCc3noc(C4CC4)n3)c21 [Compound 128, 2-[4-({4-[(5-amino-7-{[(5-cyclopropyl-1,2,4-oxadiazol-3-yl)methyl]amino}-1H-pyrazolo[4,3-d]pyrimidin-1-yl)methyl]-3-methoxyphenyl}methyl)piperazin-1-yl]ethan-1-ol] | 7.5 | 33.7 |
| COc1cc(CNC2CCOCC2)cnc1Cn1ncc2nc(N)nc(NCc3noc(C)n3)c21 [Compound 130, 1-[(3-methoxy-5-{[(oxan-4-yl)amino]methyl}pyridin-2-yl)methyl]-N7-[(5-methyl-1,2,4-oxadiazol-3-yl)methyl]-1H-pyrazolo[4,3-d]pyrimidine-5,7-diamine] | 85 | 1350 |
| COc1cc(CN2CCN(C)CC2)ccc1Cn1nc(C)c2nc(N)nc(NCc3cc(C)on3)c21 [Compound 113, 1-({2-methoxy-4-[(4-methylpipeazin-1-yl)methyl]phenyl}methyl)-3-methyl-N7-[(5-methyl-1,2-oxazol-3-yl)methyl]-1H-pyrazolo[4,3-d]pyrimidine-5,7-diamine] | 40.5 | 100 |
| COc1cc(CNC2CCOCC2)ccc1Cn1nc(C)c2nc(N)nc(NCc3cc(C)on3)c21 [Compound 112, 1-[(2-methoxy-4-{[(oxan-4-yl)amino]methyl}phenyl)methyl]-3-methyl-N7-[(5-methyl-1,2-oxazol-3-yl)methyl]-1H-pyrazolo[4,3-d]pyrimidine-5,7-diamine] | 10.3 | 95.9 |
| COc1cc(CN2CC(OC)C2)ccc1Cn1ncc2nc(N)nc(NCc3cc(C)on3)c21 [Compound 106, 1-({2-methoxy-4-[(3-methoxyazetidin-1-yl)methyl]phenyl}methyl)-N7-[(5-methyl-1,2-oxazol-3-yl)methyl]-1H-pyrazolo[4,3-d]pyrimidine-5,7-diamine] | 9.5 | 57 |
| COc1cc(CNC2CCOCC2)ccc1Cn1ncc2nc(N)nc(NCc3cc(C)on3)c21 [Compound 103, 1-[(2-methoxy-4-{[(oxan-4-yl)amino]methyl}phenyl)methyl]-N7-[(5-methyl-1,2-oxazol-3-yl)methyl]-1H-pyrazolo[4,3-d]pyrimidine-5,7-diamine] | 5.4 | 57.6 |
| COc1cc(CNC2CCOCC2)ccc1Cn1ncc2nc(N)nc(NCc3noc(C4CC4)n3)c21 [Compound 127, N7-[(5-cyclopropyl-1,2,4-oxadiazol-3-yl)methyl]-1-[(2-methoxy-4-{[(oxan-4-yl)amino]methyl}phenyl)methyl]-1H-pyrazolo[4,3-d]pyrimidine-5,7-diamine] | 25.5 | 72.4 |
